The results in this text go back to PMC11882969 (Nature Communications, 2025).

For data set [1] the following is noted: for Stability time course, Mean (FS10f): relative to 100 at 0 min.
A short description of data set [2]: in vitro. The settings on record: mouse, microsomes, pH 7.4.
The nature of data set [3]: in vitro. The settings on record: mouse, pH 7.4.
For data set [4] the following is noted: mouse plasma, 1.0 µM.
In data set [5] the test system is P-gp (human MDR1). In words: in vitro. The settings on record: dog, MDCK-MDR1, pH 7.4.
For data set [6] the following is noted: pH 7.4, kinetic, 2% DMSO, 25 °C.
The target of data set [7] is T1, CB1R with G protein (Gi1-3, Go) (Homo sapiens, UniProt P21554).
T1 construct: a N-terminal FLAG tag and C-terminal histidine tag was added to human full-length CB1; FLAG (N); histidine tag (C); made in house; host or cells: CB1R: Spodoptera frugiperda Sf9; G proteins: Trichoplusia ni Hi5
T1 sequence (P21554 whole entry): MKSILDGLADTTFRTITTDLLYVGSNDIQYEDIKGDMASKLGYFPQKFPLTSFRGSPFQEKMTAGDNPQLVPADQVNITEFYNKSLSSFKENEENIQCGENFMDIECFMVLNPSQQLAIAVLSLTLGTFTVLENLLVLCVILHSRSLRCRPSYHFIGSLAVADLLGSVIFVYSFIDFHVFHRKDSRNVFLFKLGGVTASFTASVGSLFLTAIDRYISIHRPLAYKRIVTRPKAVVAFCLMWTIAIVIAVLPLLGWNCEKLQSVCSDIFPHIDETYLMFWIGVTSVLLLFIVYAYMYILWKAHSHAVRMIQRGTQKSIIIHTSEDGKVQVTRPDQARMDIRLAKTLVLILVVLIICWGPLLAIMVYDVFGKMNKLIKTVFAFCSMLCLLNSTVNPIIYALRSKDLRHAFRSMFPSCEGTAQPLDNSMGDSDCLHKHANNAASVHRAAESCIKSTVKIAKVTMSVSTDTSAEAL
Briefly: GTP turnover assay (GTPase-Glo). It is filed as biochemical. The settings on record: replicates, sheet FigS3c. On the procedure: Analysis of GTP turnover was performed by using a modified protocol of the GTPase-Glo^TM assay (Promega) described previously. Ligand-bound (10 μM ligand incubated for one hour at room temperature) or apo CB1R (1 μM) was mixed with G protein (1 μM) in 20 mM HEPES, pH 7.5, 50 mM NaCl, 0.01% L-MNG/0.001% CHS, 100 μM TCEP, 10 μM GDP and 10 μM GTP and incubated at room temperature. GTPase-Glo-reagent was added to the sample after incubation for 60 min (Gi1-3) and 20 min for (Go). Luminescence was measured after the addition of detection reagent and incubation for 10 min at room temperature using a SpectraMax Paradigm plate reader.

Data set [8] deals with CB1R. In words: Bimane fluorescence of labeled CB1R. It is filed as biochemical, human. To be noted: 10 μM ligand; apo 459 nm. The method, then: A minimal cysteine version of CB1R was generated[85] where all the cysteine residues (except C256 and C264) were mutated to alanine. […] Excess label was removed using size exclusion chromatography on a Superdex 200 10/300 Increase column in 20 mM HEPES pH 7.5, 100 mM NaCl and 0.01% MNG/0.001% CHS. Bimane-labeled CB1R at […] was incubated with ligands (10 μM) for one hour at room temperature. Fluorescence data was collected at room temperature in a 150 μL cuvette with a FluorEssence v3.8 software on a Fluorolog instrument (Horiba) in photon-counting mode. Bimane fluorescence was measured by excitation at 370 nm with excitation and emission bandwidth passes of 4 nm. The emission spectra were recorded from 410 to 510 nm with 1 nm increment and 0.1 s integration time.

“And” between values parts separate entries of the source, which are not always exact repeats. Equal values may be shown once. Read-outs that look alike come from different tables or passages of the source.

As for `CC(C)NCC(O)COc1cccc2ccccc12` (stereo not shown) [Propranolol], the “Stability time course, Mean (FS10f)” value in data set [1] (Time 0 min) was determined as 100; in data set [1] (Time 7 min) it was 46.9307; in data set [1] (Time 15 min), 32.0792; in data set [1] (Time 25 min), 24.5545; in data set [1] (Time 40 min), 16.6997. The “Mean % Remaining” value in data set [1] (mouse microsomes, 15 min) is reported as 32%. The fraction remaining at 40 min, 2 µM in data set [2] is 106%.
Compound `COc1ccc(CCN(C)CCCC(C#N)(c2ccc(OC)c(OC)c2)C(C)C)cc1OC` (stereo not shown) [Verapamil, reference compound] returned a recovery at 5 h, 1 μM in data set [3] of 91%. Further, in data set [4], the “Mean % of bound compound” value is 88%.
As for `C[C@H]1O[C@@H](O[C@H]2[C@@H](O)C[C@H](O[C@H]3[C@@H](O)C[C@H](O[C@H]4CC[C@@]5(C)[C@H](CC[C@@H]6[C@@H]5C[C@@H](O)[C@]5(C)[C@@H](C7=CC(=O)OC7)CC[C@]65O)C4)O[C@@H]3C)O[C@@H]2C)C[C@H](O)[C@@H]1O` [Digoxin], the efflux ratio at 90 min, 10 μM in data set [5] was found to be 7.3.
With `Cc1nccn1CC1CCc2c(c3ccccc3n2C)C1=O` (stereo not shown) [Ondansetron], the “PBS solubility, Mean” value in data set [6] worked out at 120 µM.
For `COC(=O)[C@@H](NC(=O)c1nn(Cc2ccc(F)cc2)c2ccccc12)C(C)(C)C` [MDMB-Fub, MDMB-Fubinaca, reference compound], the “GTP turnover, normalised (FUB about 100)” value in data set [7] (Gi2) is 98.933 and 99.3172 and 100.642 and 101.735 and 100.511 and 98.862; in data set [7] (Gi3), 98.4729 and 99.2586 and 100.386 and 101.71 and 99.9413 and 100.231; in data set [7] (Goa), 94.5882 and 101.149 and 98.4211 and 105.861 and 100.202 and 99.77; in data set [7] (first block, G protein not printed (Gi2, Gi3, Goa follow)) it was 100.725 and 100.983 and 100.099 and 103.208 and 97.7953 and 97.1894. Moreover, the “bimane spectrum λmax” value in data set [8] is listed as 465 nm.

As usually defined, the efflux ratio is the permeability from basolateral to apical divided by that in the opposite direction, in the common usage.
